Experimental data taken from US11058654B2, “Compositions and methods for the treatment of hemoglobinopathies and thalassemias” (AXCELLA HEALTH INC., priority 2018, dated 2021).
Read-outs that look alike come from different tables or passages of the source.

Experiments:
[1] = test system: RBCs of healthy whole blood; assay: RBC deformability (LORRCA elongation index), ex vivo TBHP oxidation of healthy whole blood; assay type: cell-based, human; conditions: healthy donor 2, single amino acid treatments, in words
From the text: Whole blood from healthy African American and/or Hispanic donors was obtained from Research Blood Components, LLC based on the following donor selection criteria: Adult age (between 18 and 50 years), normal BMI (<30), and absence of other confounding clinical conditions. Whole blood from SCD donors were obtained from BioIVT based on the following donor selection criteria: Patients with genotypes HbSS, HbSC, HbS/β^0 and at least 1-2 months gap since last blood transfusion. Whole blood was shipped on ice on the same day as blood draw. Upon receipt, the blood sample was aliquoted and stored in the refrigerator until used for studies.
RBC deformability measurements were conducted with the Laser Optical Rotational Red Cell Analyzer (LORRCA) from RR Mechatronics in a temperature-controlled environment (37° C.). Briefly, an even layer of RBCs suspended in polyvinylpyrrolidone (PVP) is subjected to shear stress gradient (0.3 to 30 Pa) through two concentric cylinders and the resulting changes in RBC shape or deformability are measured by a laser beam diffraction pattern. The captured images of RBC shape in response to increasing shear stress are then analyzed by the LORRCA program to calculate Elongation Index (EI).
Healthy RBCs have higher deformability≥0.5 EI and SCD RBCs have lower deformability or EI values as studied by LORRCA ektacytometry in the field. […] The induced hemolysis model in this disclosure involves use of tert-butyl hydroperoxide (TBHP) to lower EI of RBCs.
The ex vivo hemolysis study disclosed here involves overnight treatment of whole blood with vehicle as a control and specific amino acids followed by rapid oxidation (5 min) with TBHP. Method for oxidation of whole blood with tert-butyl hydroperoxide has been used in prior literature (Diederich L, et al, Front Physiol. 2018 May 11; 9:332). RBC deformability or shape changes are then measured with LORRCA ektacytometry.
Whole blood aliquots stored in the fridge were brought up to room temperature while gently shaking on a rocker at low speed for an hour to ensure gradual and uniform suspension of red blood cells prior to deformability measurements. Vehicle control used in the study was 1× Dulbecco's […]) and amino acids disclosed herein were added (at either final […] or 2.5 mM concentration as indicated) to corresponding vehicle and amino acid treatment conditions. The samples were then incubated overnight at 37° C. Next day, 25 μL of whole blood was taken from each treatment condition and added to 5 mL Elon ISO viscous solution from RR Mechatronics. The sample was inverted 15-20 times to ensure proper mixing of the treated RBCs with the Elon ISO solution followed by loading the sample on LORRCA and capturing RBC deformability or shape measurements over the applied shear gradient. The remaining whole blood treatments were returned to incubator (37° C.) until deformability measurements were completed for all treatments. To the remaining whole blood treatment samples, TBHP solution (5.0-6.0 M in Decane, Sigma) was added at 2.5 mM final concentration from a 100 mM freshly prepared stock and incubated for further 5 min at 37° C. 25 μL of this TBHP-treated sample was immediately removed at the end of the 5 min incubation and added to the Elon ISO solution for RBC deformability measurement after oxidation. Included in the Tables 13-15 are EI measurements at ½ EImax shear stress 1.69 Pa and EImax shear stress 30 Pa from these studies and FIG. 1 captures EI measurements for all shear stress points for the indicated treatment conditions.

[2] = test system: VCAM-1; assay: VCAM-1 cell integrated intensity in HLMVEC treated with TNFa; assay type: cell-based, human; conditions: 0.5 ng/mL TNFα; amino acids at 20×; 24 hours; in words
From the text: A VEC model was employed to assess the ability of amino acids to influence aspects of vascular dysfunction in SCD. TNFa treatment of healthy donor HLMVEC mimics the SCD disease state and induces expression of adhesion markers ICAM-1 and VCAM-1, and secretion of proinflammatory cytokine IL-6. It is established that levels of ICAM-1, VCAM-1, and IL-6 can contribute to SCD pathology and correlate with the incidence and severity of complications in SCD patients. The VEC model sought to test the ability of amino acids to reduce the TNFa-induced disease phenotype by lowering expression of adhesion markers (ICAM-1 and VCAM-1) and inflammatory cytokines (IL-6) while promoting VEC health and viability.
Primary Human Lung Microvascular Endothelial Cells (HLMVEC; Lonza) were seeded at 6,000 cells per well in Endothelial Cell Growth Basal Medium-2 (Lonza) supplemented with Fetal Bovine Serum (FBS; Lonza), human EGF (Lonza), human VEGF (Lonza), R3-Insulin-like Growth Factor-1 (Lonza), ascorbic acid (Lonza), hydrocortisone (Lonza), human FGF-beta (Lonza), and gentamicin/amphotericin-b (Lonza) in a 96-well plate (Thermo Fisher). The cells were incubated for 45 minutes at room temperature, then incubated overnight at 37° C./5% CO2.
Following overnight incubation, cell were washed once with 150 μL of Dulbecco's phosphate buffered saline (DPBS; Gibco), and then treated with Endothelial Basal Medium MCB-131 (amino acid, glucose, sodium pyruvate, and phenol red free; US Biologicals) containing a defined custom amino acid concentration based on physiological concentrations in blood of patients with SCD (thus recapitulating observed metabolic imbalances such as the depletion of certain essential amino acids including arginine and aspartate and enrichment of certain non-essential amino acids including glutamate and asparagine), dialyzed FBS (Hyclone), human EGF (Lonza), human VEGF (Lonza), R3-Insulin-like Growth Factor-1 (Lonza), ascorbic acid (Lonza), hydrocortisone (Lonza), human FGF-beta (Lonza), and gentamicin/amphotericin-b (Lonza), glucose, 10 mM HEPES, sodium pyruvate, and sodium bicarbonate supplemented with one of the following: • a. PBS (vehicle control), • b. 0.5 ng/mL Tumor Necrosis Factor alpha (TNFα) and PBS, or; • c. 0.5 ng/mL TNFα and amino acid treatments at 20× mean physiological concentrations in plasma based on values published in the Human Metabolome Database (HMDB) in PBS.
After 24 hours of treatment, cells were washed once with 150 μL of DPBS (Gibco), then fixed with 4% paraformaldehyde. […]
Antibody binding was detected by fluorescence microscopy using a high content imager (Molecular Devices). Images were analyzed using MetaXpress 6 software to determine the integrated intensity per cell for each wavelength corresponding to ICAM-1 or VCAM-1.

[3] = Plasma pharmacokinetics after oral gavage in male Sprague-Dawley rats; assay type: in vivo; set-up: AUC(0-t): concentration or dose not given beside the values; conditions: rat
Protocol: A pharmacokinetic (PK) analysis was performed on plasma concentrations of various combinations of amino acid compounds administered by oral gavage to male Sprague-Dawley rats. Four animals were dosed with RCitNacQCarLHKVS, a test article comprising ten amino acid components: arginine, citrulline, N-acetylcysteine, glutamine, carnitine, leucine, histidine, lysine, valine, and serine (Table 19). Animals were fasted for 2 hours prior to dose administration. Plasma samples were taken immediately pre-dose and 0.5, 1, 2, 3, 4, and 5 hours post-dose.
Bioanalysis of collected plasma samples for amino acid content was performed at Axcella Health using an LC-MS method (Section 2.1). Bioanalytical data were analyzed using noncompartmental analysis with Phoenix® WinNonLin® (v8.1).
An LC/MS method utilizing HILIC chromatography and high-resolution mass spectrometry was used to quantify amino acids in rat plasma. The samples were prepared by protein precipitation and spiked with stable-labeled amino acid internal standard for each analyte. […] QCs, spiked into rat plasma, were utilized to assess the accuracy of the method.
PK parameters of test article components were determined from individual rat plasma concentration-time data by employing a noncompartmental approach using Phoenix WinNonlin® (Version 8.1) software. Nominal times were used to calculate the toxicokinetic parameters. […] This program analyzed data using the standard methods described by Gibaldi and Perrier (see M. Gibaldi and D. Perrier, Pharmacokinetics, 2nd edition, New York: Marcel-Dekker, Inc.; 1982.).

[4] = test system: TNFa; assay: LPS-induced TNFa secretion in primary human PBMC-derived macrophages (ELISA); assay type: cell-based; conditions: Donor 2; in words
Protocol: (§1) Unpurified buffy coats (Research Blood Components) were carefully poured into 50 mL centrifuge tubes and diluted with room temperature Dulbecco's Phosphate Buffered Saline (dPBS) with Calcium and Magnesium (Gibco). Diluted buffy coats were further divided into four total 50 mL centrifuge tubes at 20 mL per tube. Lymphocyte Separation Medium (Corning) was carefully pipetted to the bottom of each centrifuge tube. Mixtures were centrifuged at 850× g for 32 minutes at 20° C. with 0 deceleration and acceleration.
(§2) The PBMC layer was separated from other components after centrifugation and added to new 50 mL centrifuge tube containing 25 mL dPBS. Total volume was brought up to 50 mL with dPBS and centrifuged at 600× g for 10 minutes at 20° C. with acceleration of 9, deceleration of 5. Supernatant was carefully removed from cell pellets. The cell pellets were resuspended using 10 mL dPBS. Total volume was then brought up to 50 mL using dPBS and centrifuged at 450× g for 5 min at 20° C. with acceleration of 9, deceleration of 9. The supernatant removal and cell pellet resuspension was repeated again.
(§3) The supernatant was then carefully removed from cell pellets. Cell pellets were resuspended in 10 mL dPBS without calcium or magnesium and filtered through a 70 uM cell strainer. The total PBMC number was determined using a Cellometer K2 automated cell counter. A total of 5E6 cells were saved for flow cytometric analysis. Remaining cells were centrifuged at 490× g for 5 minutes at 20° C. with acceleration of 9, deceleration of 9.
(§4) CD14+ cells were selected using EasySep™ Human CD14 Positive Selection Kit II ([…] Technologies). Cells were resuspended in cold EasySep™ Buffer ([…] Technologies) at 1×10^8 cells/mL. A total of 100 uL/mL EasySep™ Human CD14 Positive Selection Cocktail II was added to the cell suspension, mixed, and incubated at room temperature for 10 minutes. A total of 100 uL/mL RapidSpheres were added to the mixture and incubated at room temperature for 3 minutes after mixing, then RoboSep buffer was added to bring up the total volume to 10 mL. The mixture in a 15 mL tube was placed in magnet and incubated at room temperature for 3 minutes. Supernatant was discarded and 10 mL fresh EasySep™ buffer was added to 15 mL tube. The addition of RoboSep buffer, mixing, and discarding of supernatant was repeated two more times.
(§5) Negative and positive fractions were centrifuged at 490× g for 5 minutes at 20° C. with acceleration of 9, deceleration of 9, and resuspended in DMEM (Gibco) and 10% Heat Inactivated Fetal Bovine Serum (Atlanta Bio) and Penicillin/Streptomycin. Cells were counted and centrifuged again at […] for 5 minutes at 20° C. with acceleration of 9, deceleration of 9. After centrifugation, cell were resuspended in DMEM (Gibco) and 10% Heat Inactivated Fetal Bovine Serum (Atlanta Bio) and Penicillin/Streptomycin containing 500 U/mL […] and plated at 1-2×10^6 cells/mL on 10 cm tissue culture plates. Cells were kept in 37° C., 5% CO2 in between feedings/harvest.
(§6) Cells were fed every 3-4 days by removing media and unattached cells, centrifuging at 490× g for 5 minutes at 20 C with acceleration of 9, deceleration of 9, and resuspending in fresh DMEM (Gibco) and 10% Heat Inactivated Fetal Bovine Serum (Atlanta Bio) and Penicillin/Streptomycin containing GM-CSF. Resuspended cells were seeded back onto 10 cm tissue culture plates and incubated at 37° C., 5% CO2. Differentiated macrophages were used for subsequent experiments.
(§7) Primary human PMBC derived macrophages were seeded on day 0 at 3.0E4 cells per well in 96-well microplates (ThermoFisher) in Dulbecco's Modified Eagle Medium (DMEM) (Gibco) supplemented with penicillin-streptomycin (Hyclone) and 10% heat inactivated fetal bovine serum (HI-FBS) (Atlanta Bio) and incubated overnight at 37° C., 5% CO2. On day 1, cells were washed once with 150 uL per well DPBS (Gibco) and treated with 75 uL of: • a. […]

[5] = test system: IL-6; assay: LPS-induced IL-6 secretion in primary human PBMC-derived macrophages (ELISA); assay type: cell-based; conditions: Donor 2; in words
Protocol: as §1, §2, §3, §4, §5, §6, §7

[6] = plasma, Mean, oral gavage of RCitNacQCarLHKVS, male Sprague-Dawley rats, read-out: AUC0-5 h
[7] = plasma, Mean, oral gavage of RCitNacQCarLHKVS, male Sprague-Dawley rats, read-out: Cmax
[8] = plasma, Mean, oral gavage of RCitNacQCarLHKVS, male Sprague-Dawley rats, read-out: Tmax
[9] = male, Sprague-Dawley, in vivo, po

Structure (SMILES)	AUC(0-t) [3, 6] [µM·h]	Cmax [3, 7] [µM]	Tmax [3, 8] [h]	also measured
C[N+](C)(C)CC(O)CC(=O)[O-] (stereo not shown) [Car, carnitine]	–	–	–	EI over vehicle control, ½ EImax and EImax [1]: higher than the vehicle; VCAM-1 expression in HLMVEC [2]: moderate effect
C[N+](C)(C)CC(O)CC(=O)[O-] (stereo not shown) [Carnitine]	237	83.8	5	–
NC(=O)NCCC[C@H](N)C(=O)O [Cit, citrulline]	–	–	–	EI over vehicle control, ½ EImax and EImax [1]: higher than the vehicle; VCAM-1 expression in HLMVEC [2]: moderate effect
NC(=O)NCCC[C@H](N)C(=O)O [Citrulline]	2090	583	2.5	–
N[C@@H](Cc1c[nH]cn1)C(=O)O [Histidine]	–	–	–	AUC(0-t) [3, 9]: 157 µM·h; Cmax [3, 9]: 41.9 µM; Tmax [3, 9]: 1.25 h
CC[C@H](C)[C@H](N)C(=O)O [Isoleucine]	–	–	–	effect on LPS-induced TNFa secretion [4]: increased
CC(C)C[C@H](N)C(=O)O [Leucine]	586	170	0.5	effect on LPS-induced TNFa secretion [4]: increased; effect on LPS-induced IL-6 secretion [5]: increased
NCCCC[C@H](N)C(=O)O [Lysine]	1350	337	1	–
N[C@@H](CO)C(=O)O [Serine]	1030	285	2.25	–
CC(C)[C@H](N)C(=O)O [Valine]	463	126	1	–
